In patent US20050153894A1, “p21 peptides” (Cyclacel Limited, priority 1999, published 2005):
Numbered stars: 1 amine (or outer) side, 2 acyl side, 3 side chain; on linkers, the order of the positions; unused ones are H or OH. Square brackets hold non-standard residues; d marks the D form. Dhp = Dehydrophenylalanine, O=C(/C(=C/c1ccccc1)N[*:1])[*:2]; dPse = not defined here; Pse = Phenylserine

Columns and labels:
[1] = molecular target: CDK2/cyclin A (Homo sapiens, UniProt P20248); experiment: CDK2/cyclin A kinase assay, substrate pRb(773-928); format: biochemical; details: for Relative activity Kinase Inhibition: pRb substrate, [ATP] = 100 μM
Excerpt: Reactions were stopped on ice, followed by filtration through p81 filterplates (Whatman Polyfiltronics, Kent, UK).

[2] = molecular target: Cyclin A (Homo sapiens, UniProt P20248); experiment: Cyclin A binding assay, immobilised biotinyl-Ahx-[…]NH2; details: for Cyclin A Binding Maximum Inhibition: at 100 μM, no IC50 given
Description: This was added to each well (100 μL). The plate was incubated for 1 h at room temperature with constant shaking. The plate was washed once quickly with TBS/BSA buffer (200 μL), followed by three more washes with TBS/BSA buffer (200 μL) for 5 min each. Serial dilutions of test peptides were prepared in a new plate (50 μL in each well). Cyclin A was diluted to 5 μg/50 μL with TBS/BSA buffer and this was then added to each well (50 μL). The solutions were mixed thoroughly with a pipette (5-6 times), before being incubated for 30 min at room temperature. This reaction mixture was then transferred to the biotinylated peptide: streptavidin-coated plate and incubated for 1 h at room temperature with constant shaking. The plate was washed once quickly with TBS/BSA buffer (200 μL), followed by three more washes with TBS/BSA buffer (200 μL) for 5 min each. The cyclin A antibody (Santa Cruz polyclonal) solution was diluted 1:200 with TBS/BSA buffer and this was then added to each well of the plate (100 μL. The plate was incubated for 1 h at room temperature with constant shaking. The plate was washed once quickly with TBS/BSA buffer (200 μl), followed by three more washes with TBS/BSA buffer (200 μL) for 5 min each. The anti-rabbit secondary antibody (goat anti-rabbit IgG peroxidase conjugate) was diluted 1:10,000 with TBS/BSA and this was then added to each well of the plate (100 μL). The plate was incubated for 1 h at room temperature with constant shaking. The plate was washed once quickly with TBS/BSA buffer (200 μL), followed by three more washes with TBS/BSA buffer (200 μL) for 5 min each. To each well was added the TMB-ELISA reagent (Pierce 1-Step™ Turbo TMB-ELISA; 100 μL) and the plate incubated for 1 min with constant shaking. The reaction was then quenched by the addition of 2 M aqueous H2SO4 (100 μL, each well). The UV absorbance of the each solution was measured spectrophotometrically at 450 nm. IC50 values were calculated from dose-response curves.

[3] = molecular target: T1, CDK4/Cyclin D1 (Homo sapiens, UniProt P24385); experiment: CDK4/Cyclin D1 kinase assay, phosphorylation of GST-Rb; format: biochemical
T1 construct: made in house; host or cells: CDK4: Sf9 insect cells (baculovirus)
Description: (§1) The phosphorylation reaction mixture (total volume 40 μl) consisted of 50 mM HEPES pH 7.4, 20 mM MgCl2, 5 mM EGTA, 2 mM DTT, 20 mM β-glycerophosphate, 2 mM NaF, 1 mM Na3VO4, Protease Inhibitors Cocktail (Sigma, see above), BSA 0.5 mg/ml, 1 μg purified enzyme complex, 10 μl of GST-Rb-Sepharose beads, 100 μM ATP, 0.2 μCi ^32P-ATP. The reaction was carried out for 30 min at 30° C. at constant shaking. At the end of this period 100 μl of 50 mM HEPES, pH 7.4 and 1 mM ATP were added to each well and the total volume was transferred onto GFC filtered plate. The plate was washed 5 times with 200 μl of 50 mM HEPES, pH 7.4 and 1 mM ATP. To each well were added 50 μl scintillant liquid and the radioactivity of the samples was measured on Scintilation counter (Topcount, HP). The IC50 values of different peptides were calculated using GraFit software.
Peptides were synthesized as described above. Cyclin D1 was expressed in E coli BL21(DE3) using PET expression vector and purified from the inclusion bodies. After refolding Cyclin D1 was cross-linked on SulfoLink agarose support (PIERCE). CDK4-6×His was expressed in Sf9 insect cells infected with the appropriate baculovirus construct and purified by metal-affinity chromatography (Quiagen). […] CDK4/Cyclin D1 phosphorilation of Rb was determined by incorporation of radio-labeled phosphate in GST-Rb in 96-well format kinase assay. […] The reaction was carried out for 30 min at 30 C at constant shaking. The GST-Rb-Sepharose beads were washed with 50 mM HEPES and 1 mM ATP and the radioactivity was measured on Scintillation counter (Topcount, HP)

[4] = molecular target: T2, CDK2/Cyclin E (Homo sapiens, UniProt P24864); experiment: CDK2/Cyclin E kinase assay, phosphorylation of GST-Rb; format: biochemical; details: for Kinase Inhibition Cyclin E/CDK2 % Inhibition / Kinase Inhibition Cyclin E/CDK2 IC30: GST-pRb substrate, [ATP] = 100 μM
T2 construct: 6xHis; made in house; host or cells: Sf9 insect cells (baculovirus co-expression)
Description: as §1

[5] = His152 substitutions, relative to H-His-Ala-Lys-Arg-Arg-Leu-Ile-Phe-NH2 (=1)
[6] = relative to H-His-Ala-Lys-Arg-Arg-Leu-Ile-Phe-NH2 (SEQ ID No. 36) = 1, CDK2/cyclin A kinase assay
[7] = relative to SEQ ID No. 36 = 1, competitive cyclin A binding, immobilised biotinyl-Ahx-His-Ala-Lys-Arg-Arg-Leu-Ile-Phe-NH2
[8] = Leu157 substitutions, relative to H-His-Ala-Lys-Arg-Arg-Leu-Ile-Phe-NH2 (=1)
[9] = Lys154 substitutions, relative to H-His-Ala-Lys-Arg-Arg-Leu-Ile-Phe-NH2 (=1)
[10] = GST-pRb substrate, [ATP] = 100 μM

Chain of Cyclin A (P20248 whole entry): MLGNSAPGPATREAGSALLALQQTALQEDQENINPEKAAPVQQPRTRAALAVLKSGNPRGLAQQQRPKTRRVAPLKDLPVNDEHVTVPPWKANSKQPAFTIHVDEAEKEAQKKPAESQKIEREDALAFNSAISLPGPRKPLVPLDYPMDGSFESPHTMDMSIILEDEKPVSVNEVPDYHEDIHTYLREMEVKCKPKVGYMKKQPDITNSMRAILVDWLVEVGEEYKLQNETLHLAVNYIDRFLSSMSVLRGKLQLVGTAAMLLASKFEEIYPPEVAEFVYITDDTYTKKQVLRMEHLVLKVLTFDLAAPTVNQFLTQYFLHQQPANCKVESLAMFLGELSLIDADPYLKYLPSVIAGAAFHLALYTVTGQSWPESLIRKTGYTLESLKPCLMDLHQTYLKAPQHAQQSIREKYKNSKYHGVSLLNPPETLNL
T1 sequence (P24385 whole entry): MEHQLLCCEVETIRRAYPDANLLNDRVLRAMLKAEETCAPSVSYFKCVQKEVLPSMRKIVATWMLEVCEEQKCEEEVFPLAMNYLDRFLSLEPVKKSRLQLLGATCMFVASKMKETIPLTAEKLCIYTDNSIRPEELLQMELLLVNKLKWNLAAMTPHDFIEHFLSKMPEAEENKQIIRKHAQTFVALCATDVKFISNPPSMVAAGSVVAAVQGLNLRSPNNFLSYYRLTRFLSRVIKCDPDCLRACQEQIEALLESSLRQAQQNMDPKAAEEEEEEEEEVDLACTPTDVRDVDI
T1 sequence (P11802 whole entry partner): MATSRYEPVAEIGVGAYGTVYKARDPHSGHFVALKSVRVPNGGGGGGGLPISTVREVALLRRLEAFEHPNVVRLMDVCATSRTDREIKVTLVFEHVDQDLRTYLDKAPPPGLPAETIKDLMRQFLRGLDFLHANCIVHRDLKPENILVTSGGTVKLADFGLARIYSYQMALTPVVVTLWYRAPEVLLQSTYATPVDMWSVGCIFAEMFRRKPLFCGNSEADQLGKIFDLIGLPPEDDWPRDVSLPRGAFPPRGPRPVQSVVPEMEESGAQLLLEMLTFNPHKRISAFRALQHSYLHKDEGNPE

Row | Molecule | Kinase Inhibition Cyclin D1/CDK4 % Inhibition [3, 10] [%] | Kinase Inhibition Cyclin D1/CDK4 IC30 [3, 10] [µM] | Kinase Inhibition Cyclin E/CDK2 % Inhibition [4] [%] | Kinase Inhibition Cyclin E/CDK2 IC30 [4] [µM] | further results
1 | H-Dab-Ala-Lys-Arg-Arg-Leu-Ile Phe-NH2 (XAKRRLIF; N-terminal Dab, C-terminal amide) | – | – | – | – | Relative activity Kinase Inhibition [1, 5]: 5; Relative activity Cyclin A Binding [2, 5]: 0.4
2 | 111 (H-HAKRRLI[dPse]-OH; reading uncertain) [compound 111] | – | – | – | – | Relative activity Kinase Inhibition [1, 6]: <0.1; Relative activity Cyclin A Binding [2, 7]: 0.1
3 | H-Hse-Ala-Lys-Arg-Arg-Leu-Ile Phe-NH2 (XAKRRLIF; N-terminal Hse, C-terminal amide) | – | – | – | – | Relative activity Kinase Inhibition [1, 5]: 2; Relative activity Cyclin A Binding [2, 5]: 2
4 | H-Ala-Ala-Lys-Arg-Arg-Leu-Ile Phe-NH2 (H-AAKRRLIF-NH2) | – | – | – | – | Relative activity Kinase Inhibition [1, 5]: 1.8; Relative activity Cyclin A Binding [2, 5]: 2.5
5 | 112 (H-HSKRRLI[Pse]-OH) [compound 112] | – | – | – | – | Relative activity Kinase Inhibition [1, 6]: <0.1; Relative activity Cyclin A Binding [2, 7]: <0.1
6 | H-His-Ala-Lys-Arg-Arg-Phe-Ile Phe-NH2 (H-HAKRRFIF-NH2) | – | – | – | – | Relative activity Kinase Inhibition [1, 8]: <0.1; Relative activity Cyclin A Binding [2, 8]: <0.1
7 | H-His-Ala-Leu-Arg-Arg-Leu-Ile Phe-NH2 (H-HALRRLIF-NH2) | – | – | – | – | Relative activity Kinase Inhibition [1, 9]: 0.1; Relative activity Cyclin A Binding [2, 9]: 1.4
8 | 113 (H-HSKRRLI[dPse]-OH; reading uncertain) [compound 113] | – | – | – | – | Relative activity Kinase Inhibition [1, 6]: <0.1; Relative activity Cyclin A Binding [2, 7]: <0.1
9 | 118 (H-HAKRRLI[Dhp]-OH; not fully specified) [compound 118] | – | – | – | – | Relative activity Kinase Inhibition [1, 6]: 3.3; Relative activity Cyclin A Binding [2, 7]: 0.2
10 | H-His-Ala-Lys-Arg-Arg-Val-Ile Phe-NH2 (H-HAKRRVIF-NH2) | – | – | – | – | Relative activity Kinase Inhibition [1, 8]: <0.1; Relative activity Cyclin A Binding [2, 8]: <0.1
11 | 24 (FYHSKRRLIFS) [compound 24] | – | – | – | – | Cyclin A Binding Maximum Inhibition [2]: 50(at 100 (μM) %
12 | CC[C@H](C)[C@H](NC(=O)[C@H](CC(C)C)NC(=O)[C@H](CCCNC(=N)N)NC(=O)[C@H](CCCNC(=N)N)NC(=O)[C@H](CCCCN)NC(=O)[C@H](CO)NC(=O)[C@@H](N)Cc1c[nH]cn1)C(=O)N[C@@H](Cc1ccccc1)C(N)=O | – | – | – | – | inhibition at 100 µM [3, 10]: 72%; IC50 ([3]; phosphorylation of pRb, read-out: Kinase Inhibition Cyclin D1/CDK4 IC50): 21 µM; IC50 ([4]; phosphorylation of pRb, read-out: Kinase Inhibition Cyclin E/CDK2 IC50): 3.4 µM; Kinase Inhibition Cyclin A/CDK2 % Inhibition ([1]; phosphorylation of pRb): 80%; IC50 ([1]; phosphorylation of pRb, read-out: Kinase Inhibition Cyclin A/CDK2 IC50): 3.4 µM
13 | FYHSKRRLIFSK | 70 | 41 ± 10 | 70 | – | –
14 | 30 (SKRRLIF) [compound 30] | – | – | – | – | Cyclin A Binding Maximum Inhibition [2]: 20(at 100 (μM) %
15 | DAYHSKRRLIFS | 76 | 37 ± 6 | 85 | 5.9 ± 0.4 | –
16 | DFYHSKRRAIFS (H-DFYHSKRRAIFS-NH2) | 30 | – | 30 | – | –
17 | SKRRLIF | 72 | 54 | 80 | 7.7 ± 0.5 | –
18 | KRRLIF | 72 | >200 | 80 | – | –
19 | DFYHSKRRLIF | 70 | 13 ± 2 | 75 | 2 ± 0.2 | –
20 | YHSKRRLIF | 70 | 16 ± 1 | 80 | 7 ± 2 | –
21 | DFYASKRRLIFS | 60 | 73 ± 42 | 80 | 5.1 ± 0.5 | –
22 | DFYHSKRRLIAS (H-DFYHSKRRLIAS-NH2) | 35 | – | 20 | – | –
23 | FYHSKRRLI (H-FYHSKRRLI-NH2) | 20 | – | 45 | – | –
24 | FYHSKRRLIFS | 70 | 22 ± 5 | 80 | 6.8 ± 1.0 | –
25 | YHSKRRLIFS | 70 | 20 ± 1 | 80 | 7.3 ± 0.8 | –
26 | AFYHSKRRLIFS | 72 | 22 ± 4 | 70 | 11 ± 2 | –
27 | DFAHSKRRLIFS | 56 | 121 ± 31 | 80 | 5.3 ± 0.6 | –
28 | DFYHSKRRL | 10 | – | 50 | 200 | –
29 | DFYHSKRRLIFA | 60 | 40 | 70 | – | –
